Results published in publication PMC10675526, “Development of a Novel Peptide with Antimicrobial and Mineralising Properties for Caries Management” (Pharmaceutics, 2023).
Bridge positions count the residues as written; N and C are the ends. Peptide text beside a SMILES is read from it. * marks the point of attachment. Galloyl = O=C(c1cc(O)c(O)c(O)c1)*

Key:
[1] = Mineralising effects on enamel blocks after pH cycling (SEM-EDS, Micro-CT, XRD); parameters: species or system human; conditions: sound enamel treated twice daily with 160 μM, n = 8 per group, mean ± SD; for Calcium-to-phosphate molar ratio: 8 days pH cycling (16 h pH 4.5, 8 h pH 7.0), SEM-EDS; for Mineral loss / Lesion depth: 8 days pH cycling, Micro-CT; for Mineral loss: MDV control area − MDV demineralised area
Experimental: A total of 40 enamel blocks were prepared from extracted sound human molars. The pH-cycling procedure (16 h demineralisation at pH 4.5 and 8 h remineralisation at pH 7.0) was performed on enamel blocks for 8 days, using solutions that contained calcium and phosphate. The enamel blocks from the same tooth were treated twice daily with 160 μM GAPI (GAPI Group), 160 μM GA (GA Group), 160 μM PI (PI Group) and sterile deionised water (Water Group). The structure of the enamel surface was examined using SEM (n = 8 per group). The elemental analysis of enamel surface was conducted using affiliated energy-dispersive X-ray spectroscopy (EDS). The calcium-to-phosphorus molar ratio was calculated.
The mineral loss and lesion depth on the enamel blocks were assessed using microcomputed tomography (Micro-CT) (1172, SkyScan, Antwerp, Belgium) (n = 8 per group). The parameters of Micro-CT were 80 kV voltage and 100 μA current with a voxel size of 12 μm^3. The image was reconstructed with NRecon software 1.7.4.6 (SkyScan, Antwerp, Belgium) and analysed using CTAn 1.20.3.0 (SkyScan, Antwerp, Belgium) to determine the lesion depth and mineral density values (MDVs, gHApcm^−3). The mineral loss = MDV of the control area − MDV of the demineralised area.
The diffraction patterns of the enamel blocks were evaluated using X-ray diffraction analysis (XRD) (Rigaku SmartLab 9 kW, […]) (n = 2 per group).

[2] = Stability in human saliva (HPLC); type: in vitro ADME; conditions: 37 °C
Experimental: The stability of peptides in human saliva (collected from six individual healthy volunteers; three males and three females; minimum age, 29; and maximum age, 36) was investigated by testing the remaining peptide concentration via HPLC system (Waters Pacific Pte Ltd., Singapore). The test was processed following a previous experimental protocol. After centrifuging the saliva and collecting the supernatant, GAPI was added to the sample and incubated at 37 °C for 60 min. A 1 mL sample was taken and analysed using HPLC system.

[3] = tested on: S. mutans in three-species biofilm; assay: Growth kinetics of multiple-species biofilm, PMA-qPCR; type: cell-based, Streptococcus mutans
Experimental: A multiple-species cariogenic biofilm consisting of S. mutans, L. casei and C. albicans was cultured following a previous protocol. The architecture of the multiple-species biofilm with or without GAPI treatment was assessed using scanning electron microscopy (SEM) and confocal laser scanning microscopy (CLSM). Propidium iodide and […] (DAPI), which highlight bacterial cells, and Concanavalin A (ConA), which labels C. albicans, were used to stain the multiple-species biofilm. The growth kinetics of the multiple-species biofilm were analysed using propidium monoazide–quantitative polymerase chain reaction (PMA-qPCR) (Supplementary Material S1).

SMILES | Calcium-to-phosphate molar ratio [1] | Mineral loss [1] | Lesion depth [1] | time stable in saliva [2] | reduction of S. mutans in biofilm versus untreated [3]
O=C(O)c1cc(O)c(O)c(O)c1 [GA, gallic acid] | 1.82 ± 0.08 | 0.88 ± 0.24 gHApcm^−3 | 62 ± 12 µm | – | –
CC(C)[C@@H]1NC(=O)[C@H](CCCN=C(N)N)NC(=O)[C@H](Cc2ccccc2)NC(=O)[C@@H](NC(=O)[C@H](Cc2c[nH]c3ccccc23)NC(=O)[C@H](CCCN=C(N)N)NC(=O)[C@H](CCCN=C(N)N)NC(=O)c2cc(O)c(O)c(O)c2)CSSC[C@@H](C(=O)N[C@@H](CCCN=C(N)N)C(=O)O)NC(=O)[C@H](CCCCN)NC(=O)[C@H](CCCN=C(N)N)NC(=O)[C@H](Cc2ccc(O)cc2)NC(=O)[C@@H]2CSSC[C@H](NC1=O)C(=O)N[C@@H](Cc1ccc(O)cc1)C(=O)N[C@@H](CCCN=C(N)N)C(=O)NCC(=O)N[C@@H](Cc1ccccc1)C(=O)N2 [GAPI, Gallic-Acid-Polyphemusin-I] (Galloyl-RRWCFRVCYRGFCYRKCR-OH; disulfide 4-17, 8-13) | – | – | – | at least 60 min | –
CC(C)[C@@H]1NC(=O)[C@H](CCCNC(=N)N)NC(=O)[C@H](Cc2ccccc2)NC(=O)[C@@H](NC(=O)[C@H](Cc2c[nH]c3ccccc23)NC(=O)[C@H](CCCNC(=N)N)NC(=O)[C@H](CCCNC(=N)N)NC(=O)c2cc(O)c(O)c(O)c2)CSSC[C@@H](C(=O)N[C@@H](CCCNC(=N)N)C(=O)O)NC(=O)[C@H](CCCCN)NC(=O)[C@H](CCCNC(=N)N)NC(=O)[C@H](Cc2ccc(O)cc2)NC(=O)[C@@H]2CSSC[C@H](NC1=O)C(=O)N[C@@H](Cc1ccc(O)cc1)C(=O)N[C@@H](CCCNC(=N)N)C(=O)NCC(=O)N[C@@H](Cc1ccccc1)C(=O)N2 [GAPI, Gallic-Acid-Polyphemusin-I] (Galloyl-RRWCFRVCYRGFCYRKCR-OH; disulfide 4-17, 8-13; C-terminus assumed) | 1.81 ± 0.05 | 0.89 ± 0.20 gHApcm^−3 | 64 ± 7 µm | – | more than 10 fold
CC(C)[C@@H]1NC(=O)[C@H](CCCNC(=N)N)NC(=O)[C@H](Cc2ccccc2)NC(=O)[C@@H](NC(=O)[C@H](Cc2c[nH]c3ccccc23)NC(=O)[C@H](CCCNC(=N)N)NC(=O)[C@@H](N)CCCNC(=N)N)CSSC[C@@H](C(=O)N[C@@H](CCCNC(=N)N)C(=O)O)NC(=O)[C@H](CCCCN)NC(=O)[C@H](CCCNC(=N)N)NC(=O)[C@H](Cc2ccc(O)cc2)NC(=O)[C@@H]2CSSC[C@H](NC1=O)C(=O)N[C@@H](Cc1ccc(O)cc1)C(=O)N[C@@H](CCCNC(=N)N)C(=O)NCC(=O)N[C@@H](Cc1ccccc1)C(=O)N2 [PI, Polyphemusin I] (H-RRWCFRVCYRGFCYRKCR-OH; disulfide 4-17, 8-13; N-terminus and C-terminus assumed) | 1.70 ± 0.06 | 1.32 ± 0.26 gHApcm^−3 | 96 ± 9 µm | – | –
